Values joined by “and” are separate entries in the source; they are usually repeats but may differ in a detail not shown here. Identical values can stand only once. Counter-ions that a name gives are not always drawn.
Row | SMILES | melting point
1 | c1cc2cccc3c4cccc5cccc(c(c1)c23)c54 [Perylene] | 278 °C
2 | O=[N+]([O-])c1ccccc1O [2-nitrophenol] | 46 °C
3 | CC1(C)C(=O)OC2=C(CCC/C2=C\c2ccccc2)C1c1ccccc1 (configuration not stated) | 156 °C
4 | Clc1cc(Cl)c(Cl)c(Cl)c1 [1,2,3,5-tetrachlorobenzene] | 53 °C and 55 °C and 51.5 °C
5 | C[Si](C)(C)Br [bromotrimethylsilane] | -44 °C
6 | c1ccc2c(c1)[nH]c1ccccc12 [Carbazole] | 247 °C
7 | CCCOC1CCC2C3CCC4=CC(O)CCC4(C)C3CCC12C (configuration not stated) [17-propoxyandrost-4-en-3-ol] | 125 °C
8 | O=C5\C=C4/C(C3CCC2(C(CCC2OC(=O)Cc1ccccc1)C3CC4)C)(C)CC5 (configuration not stated) [Testosterone phenylacetate] | 129 °C
9 | O=C(O)c1ccc(C(F)(F)F)nc1Cl [2-chloro-6-(trifluoromethyl)nicotinic acid] | 119 °C
10 | Clc1cccnc1Cl [2,3-dichloropyridine] | 67 °C
11 | COc1ccc(NC(=O)N(C)C)cc1Cl [Metoxuron] | 127 °C
12 | NC(=O)N1c2ccccc2C=Cc2ccccc21 [carbamazepine] | 190 °C
13 | OCCN(CCO)C(CO)(CO)CO [2,2-bis(hydroxymethyl)-2,2',2''-nitrilotriethanol] | 104 °C
14 | N#CC(c1ccccc1)N1CCOCC1 (stereo not drawn) [alpha-(4-morpholinyl)phenylacetonitrile] | 69 °C
15 | COc1ccccc1-c1ccccc1 [2-methoxybiphenyl] | 30 °C
16 | Cc1c(C)c(C)c(Br)c(C)c1C [bromopentamethylbenzene] | 162 °C
17 | COc1ccc(-c2ccccc2)cc1 [4-methoxybiphenyl] | 91 °C
18 | O=C1c2c(O)ccc([N+](=O)[O-])c2C(=O)c2c([N+](=O)[O-])ccc(O)c21 [1,8-Dihydroxy-4,5-dinitro-9,10-anthraquinone] | 225 °C
19 | COc1cc(Br)c(/C=C/C(=O)O)cc1OC [2-bromo-4,5-dimethoxycinnamic acid] | 255 °C
20 | COc1ccc(N/N=C2/C(=O)N(CO)N=C2C(F)(F)F)cc1 | 143 °C
21 | CCN1CCOCC1 [4-ethylmorpholine] | -63 °C
22 | CC1COC(=O)O1 (configuration not stated) [4-Methyl-1,3-dioxolan-2-one] | -55 °C
23 | O=C[C@@H](O)[C@H](O)[C@H](O)CO [D-arabinose] | 156 °C
24 | COc1ccc(C(=O)c2ccc(-c3ccccc3)cc2)cc1OC [biphenyl-4-yl(3,4-dimethoxyphenyl)methanone] | 108 °C
25 | Br/C(C)=CC [2-bromo-cis-2-butene] | -111 °C

Row | SMILES | melting point
26 | CCOC(=O)C(=O)OCC [diethyl oxalate] | -40 °C
27 | CC(=O)OC1CCC2(C)C(CCC3C4=C(CCC32)C(C)(C#Cc2ccccc2)CC4)C1 (configuration not stated) [10,17-dimethyl-17-(phenylethynyl)gon-13-en-3-yl acetate] | 136 °C
28 | Cc1ccccc1-c1ccccc1 [2-methylbiphenyl] | 0 °C
29 | CN(C)c1ccc(C2Nn3c(COc4ccccc4)nnc3S2)cc1 (configuration not stated) | 144 °C
30 | CCC(=O)c1ccccc1 [propiophenone] | 18 °C
31 | Nc1cccc2c(N)cccc12 [1,5-Naphthalenediamine] | 158 °C
32 | Oc1ccc(I)cc1 [4-iodophenol] | 93 °C
33 | O=C(Nc1ccc2cc(OC(=O)c3ccccc3)ccc2c1)c1ccccc1 [6-[(phenylcarbonyl)amino]naphthalen-2-yl benzoate] | 227 °C
34 | Nc1nc(=O)c2nc(CNc3ccc(C(=O)N[C@@H](CCC(=O)O)C(=O)O)cc3)cnc2[nH]1 [Folic Acid] | 250 °C
35 | NCCNc1ccc([N+](=O)[O-])cn1 [N-(5-nitro-2-pyridyl)-1,2-ethanediamine] | 127 °C
36 | Nc1ccccn1 [2-aminopyridine] | 58 °C
37 | COC(=O)CC(=O)OC [Dimethyl malonate] | -62 °C
38 | Brc1ccccc1 [Bromobenzene] | -31 °C
39 | Cn1c(/C(C#N)=N/Nc2ccc(Cl)cc2Cl)nc2ccccc21 | 161 °C
40 | CCCCCCCC(=O)CC [3-decanone] | -4 °C
41 | COc1cc(Br)cc(OC)c1OC [5-bromo-1,2,3-trimethoxybenzene] | 79 °C
42 | O=C(S)CCCC(=O)S [methylenebis(thioacetic acid)] | 128 °C
43 | [O-][n+]1ccc2ccc(Br)cc2c1 [7-bromoisoquinoline n-oxide] | 180 °C
44 | Fc1ccc(-c2cc3ccccc3[nH]2)cc1 [2-(4-fluorophenyl)indole] | 189 °C
45 | C[C@]12CC[C@H]3[C@@H](CCC4=CC(=O)CC[C@@]43C)[C@@H]1CC[C@@H]2O [(17beta)-17-Hydroxyandrost-4-en-3-one] | 155 °C
46 | Nc1n[nH]c(-c2ccccc2)c1Br [3-amino-4-bromo-5-phenyl-1h-pyrazole] | 114 °C
47 | N#CCc1ccccc1 [phenylacetonitrile] | -24 °C
48 | CSCC[C@H](NC(=O)OCC1c2ccccc2-c2ccccc21)C(=O)O [N-fmoc-L-methionine] | 134 °C
49 | CCC(C)CCC(C)O (configuration not stated) [5-methyl-2-heptanol] | -120 °C
50 | CCCCc1ccccc1 [N-butylbenzene] | -88 °C

The remaining lines, values ahead:

Row | melting point | SMILES
51 | 45 °C | O=[N+]([O-])c1cccc(Cl)c1 [1-Chloro-3-nitrobenzene]
52 | 155 °C | COc1ccccc1-c1nnn[nH]1 [5-(2-methoxyphenyl)-1h-tetrazole]
53 | 112 °C | N#CCS(=O)(=O)c1ccccc1 [phenylsulfonylacetonitrile]
54 | 167 °C | CSc1ccccc1C(=O)O [2-(methylthio)benzoic acid]
55 | 126 °C | O=C(O)c1ccccc1CO [o-hydroxymethyl_benzoic_acid]
56 | 74 °C | CC(=O)c1ccc(Cl)c(Cl)c1 [3',4'-dichloroacetophenone]
57 | 81.5 °C | Oc1cccc(Nc2ccccc2)c1 [3-Anilinophenol]
58 | 127 °C | COC(=O)c1ccc(O)cc1 [Methyl 4-hydroxybenzoate]
59 | 45 °C | COc1cccc(OC)c1OC [1,2,3-trimethoxybenzene]
60 | 33 °C | COC(=O)c1cccc(Br)c1 [methyl_3-bromobenzoate]
61 | 99 °C | CC(=O)c1cccc(C#N)c1 [3-acetylbenzonitrile]
62 | 93 °C | CC(C(=O)O)c1cccc(C(=O)c2ccccc2)c1 (configuration not stated) [Ketoprofen]
63 | 53 °C | O=c1cccccc1O [tropolone]
64 | 82 °C | COc1cccc(C(CC(=O)O)NC(=O)OC(C)(C)C)c1 (configuration not stated) [3-(boc-amino)-3-(3-methoxyphenyl)propionic acid]
65 | -31 °C | Ic1ccccc1 [iodobenzene]
66 | 38 °C | COc1ccc(C(C)=O)cc1 [4'-methoxyacetophenone]
67 | 141 °C | COC(=O)c1cc2c(OC)cccc2[nH]1 [methyl 4-methoxyindole-2-carboxylate]
68 | 147 °C | O=C(O)C(c1ccccc1)c1ccccc1 [diphenylacetic acid]
69 | 239 °C | O=C(O)c1cc2ccccc2s1 [benzo[b]thiophene-2-carboxylic acid]
70 | 139 °C | Cc1ccc(S(N)(=O)=O)cc1 [p-toluenesulfonamide]
71 | 248 °C | Nc1nc2ccc([N+](=O)[O-])cc2s1 [2-Amino-6-nitrobenzothiazole]
72 | 135 °C | CC(=O)Oc1ccccc1C(=O)O [Acetylsalicylic acid]
